{"source": "paper PMC7113690", "about": "(Antiviral Research, 2015)", "key": {"[1]": {"system": "EBOV (Zaire strain) GP/HIV core pseudovirus (pEBOV)", "experiment": "organism not typed", "assay_type": "cell-based, Ebola virus (Zaire strain)", "conditions": "for pEC50: read-out: EC50 pEBOV"}, "[2]": {"system": "VSV G/HIV core pseudovirus (pVSV)", "experiment": "organism not typed", "assay_type": "cell-based", "conditions": "for pEC50: read-out: EC50 pVSV"}, "[3]": {"system": "enterovirus 71 (EV-A71, strain G082)", "assay_type": "cell-based"}, "[4]": {"conditions": "cited from earlier work"}, "[5]": {"system": "Coxsackievirus A16 (CV-A16, strain SHZH05-1)", "assay_type": "cell-based"}, "[6]": {"system": "Ebola virus (Zaire strain) minigenome", "assay_type": "cell-based"}, "eGFP-EBOV": {"system": "eGFP-EBOV", "conditions": "cited from earlier work"}, "[7]": {"system": "poliovirus 1 (PV1, strain Sabin)", "assay_type": "cell-based"}, "EBOV": {"system": "EBOV", "conditions": "mouse, in vivo, 14 mg/kg; cited from earlier work"}, "[8]": {"conditions": "in vivo; cited from earlier work"}, "[9]": {"system": "EBOV pseudovirus (pEBOV) entry into Vero cells", "assay_type": "cell-based, Ebola virus (Zaire strain)"}, "bacteremia": {"system": "bacteremia", "conditions": "in vivo, 40 mg/kg; cited from earlier work"}}, "note": "pEC50: −log10 of the molar value. Structures can show the parent of a compound that is named as a salt. Where two headings read alike, the source gives them in different places."}
{"compound": "CC(C(=O)O)c1ccc(N2Cc3ccccc3C2=O)cc1", "note": "(centres unmarked) [Indoprofen]", "values": [{"measurement": "pEC50", "setting": "[1]; Vero, 72 h", "value": 5.03}, {"measurement": "pEC50", "setting": "[2]; Vero, 72 h", "value": 5.07}]}
{"compound": "CCN(CC)CCOCCOC(=O)C(CC)(CC)c1ccccc1", "note": "[Oxeladin]", "values": [{"measurement": "pEC50", "setting": "[1]; Vero, 72 h", "value": 5.09}, {"measurement": "pEC50", "setting": "[2]; Vero, 72 h", "value": 4.42}]}
{"compound": "Oc1c(I)cc(I)c2cccnc12", "note": "[Iodoquinol]", "values": [{"measurement": "pEC50", "setting": "[1]; Vero, 72 h", "value": 5.46}, {"measurement": "pEC50", "setting": "[2]; Vero, 72 h", "value": 5.46}]}
{"compound": "C[C@@H]1CC[C@H]2[C@@H](C)C(=O)O[C@@H]3O[C@@]4(C)CC[C@@H]1[C@]32OO4", "note": "[Artemisinin]", "values": [{"measurement": "pEC50", "setting": "[1]; Vero, 72 h", "value": 4.13}, {"measurement": "pEC50", "setting": "[2]; Vero, 72 h", "value": 3.79}]}
{"compound": "CN[C@H](CC(C)C)C(=O)N[C@H]1C(=O)N[C@@H](CC(N)=O)C(=O)N[C@H]2C(=O)N[C@H]3C(=O)N[C@H](C(=O)N[C@H](C(=O)O)c4cc(O)cc(O)c4-c4cc3ccc4O)[C@H](O)c3ccc(c(Cl)c3)Oc3cc2cc(c3O[C@@H]2O[C@H](CO)[C@@H](O)[C@H](O)[C@H]2O[C@H]2C[C@](C)(N)[C@H](O)[C@H](C)O2)Oc2ccc(cc2Cl)[C@H]1O", "note": "[vancomycin]", "values": [{"measurement": "inhibition at 125 µM", "setting": "[1]; Vero, read-out: inhibition of pEBOV", "value": 24.7, "unit": "%"}]}
{"compound": "Fc1ccc([C@@H]2CCNC[C@H]2COc2ccc3c(c2)OCO3)cc1", "note": "[Paroxetine]", "values": [{"measurement": "pEC50", "setting": "[1]; Vero, 72 h", "value": 5.62}, {"measurement": "pEC50", "setting": "[2]; Vero, 72 h", "value": 5.13}]}
{"compound": "C[C@H](N)[C@H](O)c1ccc(O)c(O)c1", "note": "[Levonordefrin]", "values": [{"measurement": "pEC50", "setting": "[1]; Vero, 72 h", "value": "< 4.30"}, {"measurement": "pEC50", "setting": "[2]; Vero, 72 h", "value": "< 4.30"}]}
{"compound": "O=C1C=C2C=C[C@@H]3C[C@@]2(O1)[C@H]1CCCCN31", "note": "[Securinine]", "values": [{"measurement": "pEC50", "setting": "[1]; Vero, 72 h", "value": 4.57}, {"measurement": "pEC50", "setting": "[2]; Vero, 72 h", "value": 4.57}]}
{"compound": "Teicoplanin", "values": [{"measurement": "inhibition of EV-A71", "setting": "[3]", "value": "no inhibition was observed"}, {"measurement": "bound to plasma protein", "setting": "[4]", "value": 90, "unit": "%"}, {"measurement": "inhibition of CV-A16", "setting": "[5]", "value": "no inhibition was observed"}, {"measurement": "inhibition of pEBOV infection (in words)", "setting": "[1]; 125 µM", "value": "completely inhibited"}, {"measurement": "pEC50", "setting": "[1]", "value": 5.62}, {"measurement": "EC90", "setting": "[1]; read-out: EC90 pEBOV", "value": 9.36, "unit": "µM"}, {"measurement": "inhibition of EBOV minigenome replication", "setting": "[6]", "value": "did not inhibit"}, {"measurement": "inhibition of pVSV infection", "setting": "[2]; 125 µM", "value": "less than 20%"}, {"measurement": "pEC50", "setting": "[2]", "value": "< 3.90"}, {"measurement": "activity against eGFP-EBOV in vitro", "setting": "eGFP-EBOV", "value": "active"}, {"measurement": "inhibition of PV1", "setting": "[7]", "value": "no inhibition was observed"}, {"measurement": "CC50", "setting": "Vero cells", "value": "> 125", "unit": "µM"}, {"measurement": "cytotoxicity", "setting": "Vero cells", "value": "without cytotoxicity"}, {"measurement": "protection of EBOV-infected mice", "setting": "EBOV", "value": "no protection was observed"}, {"measurement": "Cmin at which toxicity is seen", "setting": "[8]", "value": "≥ 60000", "unit": "ng/mL"}, {"measurement": "trough plasma concentration (Cmin)", "setting": "[8]", "value": "20000 to 60000", "unit": "ng/mL"}, {"measurement": "inhibition of pEBOV infection, during infection", "setting": "[9]", "value": "efficiently inhibited infection"}, {"measurement": "inhibition of pEBOV infection, post-attachment", "setting": "[9]", "value": "no inhibition was detected"}, {"measurement": "inhibition of pEBOV infection, pre-attachment", "setting": "[9]", "value": "efficiently inhibited infection"}, {"measurement": "safety and decrease of bacteremia", "setting": "bacteremia", "value": "safe and effectively in decreasing bacteremia"}]}
{"compound": "CN1CCC(=C2c3ccccc3Sc3ccccc32)CC1", "note": "[Pimethixene maleate]", "values": [{"measurement": "pEC50", "setting": "[1]; Vero, 72 h", "value": 4.97}, {"measurement": "pEC50", "setting": "[2]; Vero, 72 h", "value": 4.83}]}
{"compound": "CN(C)CCOc1ccc(/C(=C(/CCCl)c2ccccc2)c2ccccc2)cc1", "note": "[Toremiphene]", "values": [{"measurement": "pEC50", "setting": "[1]; Vero, 72 h", "value": 6.42}, {"measurement": "pEC50", "setting": "[2]; Vero, 72 h", "value": 5.12}]}
{"compound": "O=C(OCC(O)CO)c1ccccc1Nc1ccnc2cc(Cl)ccc12", "note": "(centres unmarked) [Glafenine]", "values": [{"measurement": "pEC50", "setting": "[1]; Vero, 72 h", "value": 4.95}, {"measurement": "pEC50", "setting": "[2]; Vero, 72 h", "value": 4.96}]}
